{
  "source": "patent US7176239B2",
  "about": "“Methods and compositions for treatment of Ataxia-telangeictasia” (priority 2003, dated 2007)",
  "key": {"AT cells (AT22)": {"system": "AT cells (AT22)", "experiment": "Colony forming-efficiency assay, cell survival with increasing CuCl2", "assay_type": "cell-based, human", "settings": "AT22 versus VA13 cells, increasing concentrations of CuCl2; FIG. 4A", "description": "Colony forming-efficiency experiments were performed as previously described (See R. E. Shackelford et al. The Ataxia telangiectasia Gene Product Is Required for Oxidative Stress-induced G1 and G2 Checkpoint Function in Human Fibroblasts, 276 J. BIOL. CHEM. 21951-21959 (2001)). In brief, exponentially growing cells were plated at 2,000 cells/100 mm tissue culture dish in 10 ml appropriate media, allowed to adhere 6 h, […], aspirin, diethylenetriaminepentaacetic acid (DTPA), hygromycin, and desferrioxamine mesylate were obtained from Sigma Chemical Corp (St. Louis, Mo.). Fetal calf serum (FCS) and Dulbecco's Modified Eagle's Medium (DMEM) were obtained from Invitrogen (Rockville, Md.). Culture dishes were obtained from Becton Dickinson (Franklin Lakes, N.J.).\nFollowing treatment, the pates were washed 2× with media, the media replaced, and colonies fixed and stained after 14 days in culture by water: methanol addition (1:1) containing crystal violet (1 g/L). Colonies consisting of cell clusters containing greater than 50 cells were counted under a dissecting microscope. […] Standard deviations (error bars) were calculated from each experimental data point divided by the mean untreated value and averaged between experiments to obtain the mean standard deviation. […]"}, "ATDM-1, and ATDM-2 cells": {"system": "ATDM-1, and ATDM-2 cells", "experiment": "Mitotic delay assay (mitotic index after FeCl2 treatment)", "assay_type": "cell-based, human", "settings": "increasing concentrations of FeCl2, 15 min treatment, 2 h culture; NHF1 cells for comparison; fluorescence microscopy; FIG. 3", "description": "Mitotic delay assays were performed as previously described (See R. E. Shackelford et al. The Ataxia telangiectasia Gene Product Is Required for Oxidative Stress-induced G1 and G2 Checkpoint Function in Human Fibroblasts, 276 J. BIOL. CHEM. 21951–21959 (2001)). In brief, cells were plated onto 100 mm tissue culture plates and incubated 48–72 h (to approximately 50% confluency). The cells were then treated with FeCl2 for 15 m as in the colony forming-efficiency assay, washed 2× with media, cultured 2 h, and the media was removed. The cells were fixed in 5 ml cold methanol for 10 min and air-dried. The cells were stained with 0.2 μg/ml 4′,6-diamidino-2-phenylindole (DAPI) in water and examined by fluorescence microscopy. The percentage of mitotic cells (mitotic delay) was determined by counts of 5,000 cells. Mitotic delay experiments were performed in triplicate and the standard deviations were calculated as in the colony forming-efficiency assays. (FIG. 3)."}, "AT cells": {"system": "AT cells", "settings": "AT cells treated with the antioxidant; Gatei et al. 2001; cited from earlier work"}, "[1]": {"system": "AT cells (AT22, ATDM-1, ATDM-2)", "experiment": "Colony forming-efficiency assay, desferrioxamine/aspirin pretreatment then t-BOOH toxicity", "assay_type": "cell-based, human", "settings": "for resistance to the toxic effects of t-BOOH exposure versus length of pretreatment / resistance to the toxic effects of t-BOOH versus concentration of pretreatment agent: AT22 cells; for resistance to the toxic effects of t-BOOH exposure versus length of pretreatment / resistance to t-BOOH toxicity (cell survival, percentage of untreated cells): desferrioxamine 100 μM, aspirin 0.3 mM; for resistance to the toxic effects of t-BOOH exposure versus length of pretreatment: FIG. 9; for resistance to the toxic effects of t-BOOH versus concentration of pretreatment agent: increasing concentrations of desferrioxamine or aspirin, FIG. 10A/10B; for resistance to t-BOOH toxicity (cell survival, percentage of untreated cells): pretreatment, increasing concentrations of t-BOOH, FIG. 8A", "description": "Colony forming-efficiency experiments were performed as previously described (See R. E. Shackelford et al. The Ataxia telangiectasia Gene Product Is Required for Oxidative Stress-induced G1 and G2 Checkpoint Function in Human Fibroblasts, 276 J. BIOL. CHEM. 21951-21959 (2001)). In brief, exponentially growing cells were plated at 2,000 cells/100 mm tissue culture dish in 10 ml appropriate media, allowed to adhere 6 h, and treated 15 min with varying concentrations of t-BOOH or FeCl2 FeCl2, aspirin, diethylenetriaminepentaacetic acid (DTPA), hygromycin, and desferrioxamine mesylate were obtained from Sigma Chemical Corp (St. Louis, Mo.). Fetal calf serum (FCS) and Dulbecco's Modified Eagle's Medium (DMEM) were obtained from Invitrogen (Rockville, Md.). Culture dishes were obtained from Becton Dickinson (Franklin Lakes, N.J.).\nFollowing treatment, the pates were washed 2× with media, the media replaced, and colonies fixed and stained after 14 days in culture by water: methanol addition (1:1) containing crystal violet (1 g/L). Colonies consisting of cell clusters containing greater than 50 cells were counted under a dissecting microscope. Unless otherwise noted, where desferrioxamine and/or aspirin pretreatment was employed, the cells were plated in desferrioxamine, aspirin, or desferrioxamine and aspirin, and allowed to adhere for 6 h. The plates were then washed 4× with media and treated with t-BOOH as above. Data indicates survival as a percentage of untreated cells. The AT22 and VA13 tumor cell lines were used at passages 20–40. The primary NHF1, ATDM-1, and ATDM-2 cell strains were used at passages 6–18. pEBS7 and pEBS7-YZ5 cells were used at passages 15–20. All experiments were done at least twice in triplicate. Standard deviations (error bars) were calculated from each experimental data point divided by the mean untreated value and averaged between experiments to obtain the mean standard deviation. (FIGS. 6–10B)."}, "[2]": {"system": "normal cells (VA13, NHF1)", "experiment": "Colony forming-efficiency assay, apoferritin/quercetin pretreatment then t-BOOH toxicity", "assay_type": "cell-based, human", "settings": "6 h pretreatment with increasing concentrations, then 10 mM t-BOOH, FIG. 12A, 14A", "description": "(§1) Preparation of cells is as described previously in Example 1. Colony forming-efficiency experiments were performed as previously described (See R. E. Shackelford et al. The Ataxia telangiectasia Gene Product Is Required for Oxidative Stress-induced G1 and G2 Checkpoint Function in Human Fibroblasts, 276 J. BIOL. CHEM. 21951–21959 (2001)). In brief, exponentially growing cells were plated at 2,000 cells/100 mm tissue culture dish in 10 ml appropriate media with an added iron chelating agent and cultured for 14 days. The resulting colonies were fixed and stained after 14 days culture by water:methanol addition (1:1) containing crystal violet (1 g/L). Colonies consisting of cell clusters containing greater than 50 cells were counted under a dissecting microscope. For experiments involving apoferritin or quercetin pre-exposure on t-BOOH resistance, the cells were allowed to adhere 6 h in increasing aopferritin or quercetin concentrations, washed 4× with 3 ml media, treated with 10 mM t-BOOH, washed 1× with 3 ml media, and allowed to grow for 14 days in 10 ml appropriate media. Data indicates survival as a percentage of untreated cells. The AT22 and VA13 tumor cell lines were used at passages 20–40. The primary NHF1, ATDM-1, and ATDM-2 cell strains were used at passages 6–19. All experiments were done at least twice in triplicate. Standard deviations (error bars) were calculated from each experimental data point divided by the mean untreated value and averaged between triplicate experiments to obtain the mean standard deviation. (FIGS. 11A–14C)."}, "[3]": {"system": "AT cells (AT22, ATDM-1, ATDM-2)", "experiment": "Colony forming-efficiency assay, apoferritin/quercetin pretreatment then t-BOOH toxicity", "assay_type": "cell-based, human", "settings": "6 h pretreatment with increasing concentrations, then 10 mM t-BOOH, FIG. 12A, 14A", "description": "as §1"}, "[4]": {"system": "AT cells (AT22, ATDM-1, ATDM-2)", "experiment": "Colony forming-efficiency assay, long-term culture with iron chelating agent or quercetin", "assay_type": "cell-based, human", "settings": "long-term culture (14 days) with increasing concentrations; FIG. 11A, 13A", "description": "as §1, with “The AT22 and VA13 tumor cell lines were used at passages 20–40. The primary NHF1, ATDM-1, and ATDM-2 cell strains were used at passages 6–19. All experiments were done at least twice in triplicate.” left out, “(FIGS. 11A–14C).” left out"}},
  "note": "Structures can show the parent of a compound that is named as a salt.",
  "data": [
    {"molecule": "[Cl][Cu][Cl]", "note": "[CuCl2]", "values": [
      {"measurement": "cell survival (percentage of untreated cells), sensitivity to CuCl2", "setting": "AT cells (AT22)", "result": "increased sensitivity"}
    ]},
    {"molecule": "[Cl][Fe][Cl]", "note": "[FeCl2]", "values": [
      {"measurement": "mitotic activity (percentage of the mitotic index of the mock-treated population), G2 checkpoint", "setting": "ATDM-1, and ATDM-2 cells", "result": "induces a pATM-dependent G2 checkpoint"}
    ]},
    {"molecule": "O=C(O)CCCCC1CCSS1", "note": "(stereo not drawn) [a-lipoic acid]", "values": [
      {"measurement": "genotoxic stress-induced proteins", "setting": "AT cells", "result": "lowered"}
    ]},
    {"molecule": "CC(=O)Oc1ccccc1C(=O)O", "note": "[aspirin]", "values": [
      {"measurement": "resistance to the toxic effects of t-BOOH exposure versus length of pretreatment", "setting": "[1]", "result": "increases with longer exposure"},
      {"measurement": "resistance to the toxic effects of t-BOOH versus concentration of pretreatment agent", "setting": "[1]", "result": "increase the resistance"},
      {"measurement": "resistance to t-BOOH toxicity (cell survival, percentage of untreated cells)", "setting": "[1]", "result": "increased resistance to t-BOOH toxicity"}
    ]},
    {"molecule": "CC(=O)N(O)CCCCCNC(=O)CCC(=O)N(O)CCCCCNC(=O)CCC(=O)N(O)CCCCCN", "note": "[desferrioxamine, desferrioxamine mesylate]", "values": [
      {"measurement": "resistance to the toxic effects of t-BOOH exposure versus length of pretreatment", "setting": "[1]", "result": "increases with longer exposure"},
      {"measurement": "resistance to the toxic effects of t-BOOH versus concentration of pretreatment agent", "setting": "[1]", "result": "increase the resistance"},
      {"measurement": "resistance to t-BOOH toxicity (cell survival, percentage of untreated cells)", "setting": "[1]", "result": "increased resistance to t-BOOH toxicity"}
    ]},
    {"molecule": "O=c1c(O)c(-c2ccc(O)c(O)c2)oc2cc(O)cc(O)c12", "note": "[quercetin]", "values": [
      {"measurement": "resistance to t-BOOH toxicity (cell survival, percentage of untreated cells)", "setting": "[2]", "result": "increased resistance to t-BOOH toxicity"},
      {"measurement": "resistance to t-BOOH toxicity (cell survival, percentage of untreated cells)", "setting": "[3]", "result": "increased resistance to t-BOOH toxicity"},
      {"measurement": "plating efficiency (cell survival, percentage of untreated cells)", "setting": "[4]", "result": "increases the plating efficiency"}
    ]},
    {"molecule": "apoferritin", "values": [
      {"measurement": "resistance to t-BOOH toxicity (cell survival, percentage of untreated cells)", "setting": "[2]", "result": "increased resistance to t-BOOH toxicity"},
      {"measurement": "resistance to t-BOOH toxicity (cell survival, percentage of untreated cells)", "setting": "[3]", "result": "increased resistance to t-BOOH toxicity"},
      {"measurement": "plating efficiency (cell survival, percentage of untreated cells)", "setting": "[4]", "result": "increases the plating efficiency"}
    ]}
  ]
}
